{"source": "patent US20250000875A1", "about": "“ALLOPREGNANOLONE ANALOGUES FOR HIV VIREMIA AND NEUROTOXICITY PROTECTION” (priority 2021, published 2025)", "key": {"[1]": {"details": "women following three consecutive SC injections; cited from earlier work"}, "[2]": {"details": "rabbits or mice, cited from earlier work"}, "[3]": {"system": "mouse primary medium spiny neurons in mixed glial co-culture", "assay": "Tat and/or gp120 neurotoxicity (necrosis, propidium iodide) in neuron/mixed glia co-culture", "type": "cell-based", "details": "for baseline cell death: highest concentrations; for Tat and/or gp120-mediated necrosis / neurotoxicity: pretreatment, 0.001-10×10^3 nM, HIV-1 Tat and/or gp120 for 20 h", "protocol": "The trans-diol analogue of 3α, 5α-THP, 5α-pregnan-2β,3α-diol-20-one (compound 1) was synthesized. Mixed glia (derived from 0-1 day old mouse pups) and primary medium spiny neurons (from the striatum of E17 pups) were co-cultured as previously described. Co-cultures were pretreated with a concentration-response curve (0.001-10×10^3 nM) of 3α,5α-THP or the analogue, 1, and exposed to HIV-1 Tat and/or gp120 for 20 h. Prior time-lapse experiments have identified this time-point as the earliest time at which 3α,5α-THP protection is evident. Each treatment group consisted of 3 independent observations (with 2 technical replicates each). Necrotic cells were identified via propidium iodide labeling."}, "HIV-1BaL": {"system": "HIV-1BaL", "assay": "anti-viremic capacity: HIV-1BaL replication in primary human microglia, p24 accumulation", "type": "cell-based", "details": "for HIV-1BaL replication, accumulation of p24 HIV capsid protein: HIV-1BaL 1 ng/mL p24, over 10 days; for effect on efficacy of cART when co-administered: co-administered with cART", "protocol": "[…] Corp.) as described previously.\nAssessment for viremia: Media, compounds 1-6, or 3α,5α-THP was assessed in a dose-response curve (0.1, 0.3, 1, 3.2, 10, 32, 100, 320, 1×10^3, 10×10^3, 100×10^3 nM) for their anti-viremic capacity (FIG. 9). To monitor infection, samples are taken every 72 h to measure p24 or proviral DNA129-130. Infection was confirmed post-hoc via immunocytochemical imaging of HIV-1 negative regulatory factor (Nef). As needed, TZM-bl and Jurkat reporter cells were also used to determine viral proliferation.\nInteractions with cART: Efficacious concentrations were re-assessed in separate mock- or HIV-1BaL-infected cultures in the presence or absence of Triumeq® [Abacavir (ABC; 10 μM)/dolutegravir (DTG; 1 nM)/lamivudine (3TC; 30 μM) dosing derived from FDA-approved insert] to assess interactions with viremic control, cytotoxicity, and cytokine production."}, "[4]": {"system": "primary, mouse splenocytes", "assay": "mitogen-stimulated proliferation of splenocytes", "type": "cell-based", "details": "high concentrations"}, "[5]": {"biological_target": "HIV-1 trans-activation response element", "details": "read-out: affinity; cited from earlier work"}}, "data": [{"smiles": "CC(=O)[C@H]1CC[C@H]2[C@@H]3CC[C@H]4C[C@H](O)CC[C@]4(C)[C@H]3CC[C@]12C", "note": "[3α,5α-THP, 5α-pregnan-3α-ol-20-one]", "values": [{"measurement": "plasma clearance", "setting": "[1]", "result": "~4", "unit": "h"}, {"measurement": "elimination half-life (t1/2z)", "setting": "[2]; administered subcutaneously", "result": "0.2 to 0.667", "unit": "h"}, {"measurement": "elimination half-life (t1/2z) in brain", "setting": "[2]; infused IV", "result": "~4", "unit": "h"}, {"measurement": "increase in cell death", "setting": "[3]; at 10 nM", "result": 5.7, "unit": "%"}, {"measurement": "baseline cell death", "setting": "[3]", "result": "increased baseline cell death modestly"}, {"measurement": "Tat and/or gp120-mediated necrosis / neurotoxicity", "setting": "[3]", "result": "significantly attenuated necrosis at every dose assessed"}, {"measurement": "HIV-1BaL replication, accumulation of p24 HIV capsid protein", "setting": "HIV-1BaL", "result": "attenuates"}, {"measurement": "effect on efficacy of cART when co-administered", "setting": "HIV-1BaL", "result": "Neither AlloP nor 1 impairs the efficacy of cART"}]}, {"smiles": "CC(=O)[C@H]1CC[C@H]2[C@@H]3CC[C@H]4C[C@H](O)[C@@H](O)C[C@]4(C)[C@H]3CC[C@]12C", "note": "[compound 1, 2β,3α-dihydroxy-5α-pregnan-20-one]", "values": [{"measurement": "potency in ameliorating Tat-neurotoxicity relative to 3α,5α-THP", "setting": "[3]", "result": "equipotent to 3α,5α-THP"}, {"measurement": "increase in cell death", "setting": "[3]; at 1 nM", "result": 8.8, "unit": "%"}, {"measurement": "increase in cell death", "setting": "[3]; at 10 nM", "result": 10.5, "unit": "%"}, {"measurement": "baseline cell death", "setting": "[3]", "result": "increased baseline cell death modestly"}, {"measurement": "Tat and/or gp120-mediated necrosis / neurotoxicity", "setting": "[3]; listed as analogue 1", "result": "significantly attenuated necrosis at every dose assessed"}, {"measurement": "HIV-1BaL replication, accumulation of p24 HIV capsid protein", "setting": "HIV-1BaL", "result": "attenuates"}, {"measurement": "effect on efficacy of cART when co-administered", "setting": "HIV-1BaL", "result": "Neither AlloP nor 1 impairs the efficacy of cART"}]}, {"smiles": "C[C@]12C[C@H](O)[C@H]3[C@@H](CCC4=CC(=O)CC[C@@]43C)[C@@H]1CC[C@@H]2C(=O)CO", "note": "[corticosterone]", "values": [{"measurement": "mitogen-stimulated proliferation", "setting": "[4]", "result": "reduce mitogen-stimulated proliferation"}]}, {"smiles": "CN(C)[C@H]1C[C@@]23CC[C@@]4(O2)C(=CC[C@]2(C)C(c5ccc6ccncc6c5)=CC[C@H]24)C=C3[C@@H](O)[C@@H]1O", "note": "[dCA, didehydro-cortistatin A]", "values": [{"measurement": "Kd", "setting": "[5]", "result": "1 to 2", "unit": "nM"}]}]}
